Experimental findings from US12281102B2, “Inhibitors of APOL1 and methods of using same” (Vertex Pharmaceuticals Incorporated, priority 2020, dated 2025) are described below.

A word on the IC50: it is the concentration needed to halve the response being measured.

In the assay the target is T1, G1 APOL1 (Homo sapiens, UniProt O14791, I384M/S342G).
T1 construct: expressed in transfected cells
T1 sequence (O14791 28-398 S342G/I384M): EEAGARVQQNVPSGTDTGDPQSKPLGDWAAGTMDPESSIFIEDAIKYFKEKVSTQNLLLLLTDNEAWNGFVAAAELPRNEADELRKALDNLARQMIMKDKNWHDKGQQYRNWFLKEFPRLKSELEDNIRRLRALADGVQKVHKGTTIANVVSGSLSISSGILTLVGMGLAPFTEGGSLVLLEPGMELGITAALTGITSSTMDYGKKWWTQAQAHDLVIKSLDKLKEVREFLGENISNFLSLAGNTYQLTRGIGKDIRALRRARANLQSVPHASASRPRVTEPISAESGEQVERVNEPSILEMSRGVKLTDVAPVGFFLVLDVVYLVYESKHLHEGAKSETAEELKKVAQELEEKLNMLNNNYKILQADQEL
Put plainly: Acute APOL1 Thallium Assay with inducible stable clones of HEK 293 cells. In kind it is cell-based. The note with it: HEK 293 T-Rex inducible stable clone expressing G1 APOL1; read-out: Thallium Assay (IC50). An outline of the steps:
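APOL1 pore function was measured as thallium influx, detected by a Tl+-sensitive fluorescent dye loaded as AM ester, on a FLIPR Tetra after Tl+ addition. Cells were HEK T-Rex G1 APOL1 clone DC3.25, 26,000 per well, induced with tetracycline at plating in Opti-MEM assay medium.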
Take `O=C1NCCN1C[C@H]1C[C@H](c2c(-c3ccc(F)cc3)[nH]c3c(F)cc(F)cc32)C1` [Compound 373, 1-(((1r,3r)-3-(5,7-difluoro-2-(4-fluorophenyl)-1H-indol-3-yl)cyclobutyl)methyl)imidazolidin-2-one]: the half-inhibitory concentration (IC50) is < 250 nM. Then `OCC(CO)NCC1CC(c2c(-c3ccc(F)cc3)[nH]c3c(F)cc(F)cc23)C1` (stereo not shown) [Compound 376], with 250 to 1000 nM. Next, `OC1CC(NCC2CC(c3c(-c4ccc(F)cc4)[nH]c4c(F)cc(F)cc34)C2)C1` (stereo not shown) [Compound 377]: 250 to 1000 nM. Then `Fc1ccc(-c2[nH]c3c(F)cc(F)cc3c2C2CC(CNCC(F)F)C2)cc1` (stereo not shown) [Compound 379], with 250 to 1000 nM; and `Fc1ccc(-c2[nH]c3c(F)cc(F)cc3c2C2CC(CNC3COC3)C2)cc1` (stereo not shown) [Compound 380], with 250 to 1000 nM. Consider `CN1CCC(NCC2CC(c3c(-c4ccc(F)cc4)[nH]c4c(F)cc(F)cc34)C2)C1=O` (stereo not shown) [Compound 381], for which the IC50 was in the range of 250 to 1000 nM. Consider `O=C1CCC(NCC2CC(c3c(-c4ccc(F)cc4)[nH]c4c(F)cc(F)cc34)C2)C(=O)N1` (stereo not shown) [Compound 382], for which the IC50 fell in the range of 250 to 1000 nM. Then `C[C@@H](O)CNCC1CC(c2c(-c3ccc(F)cc3)[nH]c3c(F)cc(F)cc23)C1` (stereo partly shown) [Compound 383], with 250 to 1000 nM; and `NC12CC(NCC3CC(c4c(-c5ccc(F)cc5)[nH]c5c(F)cc(F)cc45)C3)(C1)C2` (stereo not shown) [Compound 384], with 250 to 1000 nM.

With `OCC(O)CNCC1CC(c2c(-c3ccc(F)cc3)[nH]c3c(F)cc(F)cc23)C1` (stereo not shown) [Compound 385], the IC50 was in the range of 250 to 1000 nM. Next, `O=C1NCCC1NCC1CC(c2c(-c3ccc(F)cc3)[nH]c3c(F)cc(F)cc23)C1` (stereo not shown) [Compound 386]: 250 to 1000 nM. Next, `O[C@H]1C[C@H](NCC2CC(c3c(-c4ccc(F)cc4)[nH]c4c(F)cc(F)cc34)C2)C1` (stereo partly shown) [Compound 387]: 250 to 1000 nM. Then `NCCNCC1CC(c2c(-c3ccc(F)cc3)[nH]c3c(F)cc(F)cc23)C1` (stereo not shown) [Compound 388], with 250 to 1000 nM. As for `C[C@@H](CO)NCC1CC(c2c(-c3ccc(F)cc3)[nH]c3c(F)cc(F)cc23)C1` (stereo partly shown) [Compound 389], the IC50 was > 1000 nM. Next, `OCC1(NCC2CC(c3c(-c4ccc(F)cc4)[nH]c4c(F)cc(F)cc34)C2)COC1` (stereo not shown) [Compound 390]: > 1000 nM; `Fc1ccc(-c2[nH]c3c(F)cc(F)cc3c2C2CC(CN[C@@H]3CCOC3)C2)cc1` (stereo partly shown) [Compound 391]: > 1000 nM; `C[C@H](O)[C@H](CO)NCC1CC(c2c(-c3ccc(F)cc3)[nH]c3c(F)cc(F)cc23)C1` (stereo partly shown) [Compound 392]: > 1000 nM. Consider `OCCCNCC1CC(c2c(-c3ccc(F)cc3)[nH]c3c(F)cc(F)cc23)C1` (stereo not shown) [Compound 393], for which the IC50 was > 1000 nM. Next, `C[C@H](CO)NCC1CC(c2c(-c3ccc(F)cc3)[nH]c3c(F)cc(F)cc23)C1` (stereo partly shown) [Compound 394]: > 1000 nM; `CC[C@@H](CO)NCC1CC(c2c(-c3ccc(F)cc3)[nH]c3c(F)cc(F)cc23)C1` (stereo partly shown) [Compound 395]: > 1000 nM; `Fc1ccc(-c2[nH]c3c(F)cc(F)cc3c2C2CC(CNC3CCOC3)C2)cc1` (stereo not shown) [Compound 396]: > 1000 nM. Next, `OCC1(NCC2CC(c3c(-c4ccc(F)cc4)[nH]c4c(F)cc(F)cc34)C2)CC1` (stereo not shown) [Compound 397]: > 1000 nM; `Fc1ccc(-c2[nH]c3c(F)cc(F)cc3c2C2CC(CN[C@H]3CCOC3)C2)cc1` (stereo partly shown) [Compound 398]: > 1000 nM; `Cn1ccc(NCC2CC(c3c(-c4ccc(F)cc4)[nH]c4c(F)cc(F)cc34)C2)n1` (stereo not shown) [Compound 399]: > 1000 nM. With `O=C1NCC[C@@H]1NCC1CC(c2c(-c3ccc(F)cc3)[nH]c3c(F)cc(F)cc23)C1` (stereo partly shown) [Compound 400], the IC50 is > 1000 nM.

`CC(C)(C)OC(=O)NCCNCC1CC(c2c(-c3ccc(F)cc3)[nH]c3c(F)cc(F)cc23)C1` (stereo not shown) [Compound 401]: the IC50 is > 1000 nM. With `CC(C)C(CO)NCC1CC(c2c(-c3ccc(F)cc3)[nH]c3c(F)cc(F)cc23)C1` (stereo not shown) [Compound 402], the half-maximal inhibitory concentration (IC50) was > 1000 nM. Consider `NCC(O)CNCC1CC(c2c(-c3ccc(F)cc3)[nH]c3c(F)cc(F)cc23)C1` (stereo not shown) [Compound 403], for which the IC50 is > 1000 nM. Next, `CC1(NCC2CC(c3c(-c4ccc(F)cc4)[nH]c4c(F)cc(F)cc34)C2)COC1` (stereo not shown) [Compound 404]: > 1000 nM; `Fc1ccc(-c2[nH]c3c(F)cc(F)cc3c2C2CC(CNCC3COC3)C2)cc1` (stereo not shown) [Compound 405]: > 1000 nM. Then `OCC(CO)(CO)NCC1CC(c2c(-c3ccc(F)cc3)[nH]c3c(F)cc(F)cc23)C1` (stereo not shown) [Compound 406], with > 1000 nM; and `CC(C)(CO)NCC1CC(c2c(-c3ccc(F)cc3)[nH]c3c(F)cc(F)cc23)C1` (stereo not shown) [Compound 407], with > 1000 nM. Next, `C[C@@H](O)[C@@H](CO)NCC1CC(c2c(-c3ccc(F)cc3)[nH]c3c(F)cc(F)cc23)C1` (stereo partly shown) [Compound 408]: > 1000 nM; `NCCCNCC1CC(c2c(-c3ccc(F)cc3)[nH]c3c(F)cc(F)cc23)C1` (stereo not shown) [Compound 409]: > 1000 nM.

For `O=C1CC(NCC2CC(c3c(-c4ccc(F)cc4)[nH]c4c(F)cc(F)cc34)C2)CN1` (stereo not shown) [Compound 410], the IC50 is > 1000 nM. Then `CS(=O)(=O)NC[C@H]1C[C@H](c2c(-c3ccc(F)cc3)[nH]c3c(F)cc(F)cc32)C1` [Compound 412, N-(((1r,3r)-3-(5,7-difluoro-2-(4-fluorophenyl)-1H-indol-3-yl)cyclobutyl)methyl)methanesulfonamide], with 250 to 1000 nM. Next, `CCS(=O)(=O)NC[C@H]1C[C@H](c2c(-c3ccc(F)cc3)[nH]c3c(F)cc(F)cc32)C1` [Compound 413]: 250 to 1000 nM; `N#CCS(=O)(=O)NC[C@H]1C[C@H](c2c(-c3ccc(F)cc3)[nH]c3c(F)cc(F)cc32)C1` [Compound 414]: 250 to 1000 nM. Next, `O=S(=O)(NC[C@H]1C[C@H](c2c(-c3ccc(F)cc3)[nH]c3c(F)cc(F)cc32)C1)c1c[nH]cn1` [Compound 415]: 250 to 1000 nM; `O=S(=O)(NC[C@H]1C[C@H](c2c(-c3ccc(F)cc3)[nH]c3c(F)cc(F)cc32)C1)c1cn[nH]c1` [Compound 416]: > 1000 nM; `O=c1ccc2cc(S(=O)(=O)NC[C@H]3C[C@H](c4c(-c5ccc(F)cc5)[nH]c5c(F)cc(F)cc54)C3)ccc2[nH]1` [Compound 417]: > 1000 nM. As for `O=c1[nH]c2ccc(S(=O)(=O)NC[C@H]3C[C@H](c4c(-c5ccc(F)cc5)[nH]c5c(F)cc(F)cc54)C3)cc2[nH]1` [Compound 418], the IC50 is > 1000 nM.

In the case of `O=S(=O)(NC[C@H]1C[C@H](c2c(-c3ccc(F)cc3)[nH]c3c(F)cc(F)cc32)C1)c1n[nH]c2ncccc12` [Compound 419], the half-inhibitory concentration (IC50) was > 1000 nM.

Consider `O=C1c2ccccc2C(=O)N1CCS(=O)(=O)NC[C@H]1C[C@H](c2c(-c3ccc(F)cc3)[nH]c3c(F)cc(F)cc32)C1` [Compound 420], for which the IC50 is > 1000 nM. Next, `O=C1C=C(NC[C@H]2C[C@H](c3c(-c4ccc(F)cc4)[nH]c4c(F)cc(F)cc43)C2)C(=O)N1` [Compound 421, 3-((((1r,3r)-3-(5,7-difluoro-2-(4-fluorophenyl)-1H-indol-3-yl)cyclobutyl)methyl)amino)-1H-pyrrole-2,5-dione]: > 1000 nM; `O=C1CC(NC[C@H]2C[C@H](c3c(-c4ccc(F)cc4)[nH]c4c(F)cc(F)cc43)C2)C(=O)N1` (stereo partly shown) [Compound 422, 3-((((1r,3r)-3-(5,7-difluoro-2-(4-fluorophenyl)-1H-indol-3-yl)cyclobutyl)methyl)amino)pyrrolidine-2,5-dione]: 250 to 1000 nM; `Fc1ccc(-c2[nH]c3c(F)cc(F)cc3c2[C@H]2C[C@H](CNc3nnc(C(F)(F)F)s3)C2)cc1` [Compound 423, N-(((1r,3r)-3-(5,7-difluoro-2-(4-fluorophenyl)-1H-indol-3-yl)cyclobutyl)methyl)-5-(trifluoromethyl)-1,3,4-thiadiazol-2-amine]: > 1000 nM. Then `OC[C@H]1C[C@H](c2c(-c3ccc(F)cc3)[nH]c3c(F)cc(F)cc32)C1` [Compound 425, [3-[5,7-difluoro-2-(4-fluorophenyl)-1H-indol-3-yl]cyclobutyl]methanol], with < 250 nM. Then `NCC1(F)CC(c2c(-c3ccc(F)cc3)[nH]c3c(F)cc(F)cc23)C1` (stereo not shown) [Compound 428, [3-[5,7-difluoro-2-(4-fluorophenyl)-1H-indol-3-yl]-1-fluoro-cyclobutyl]methanamine], with 250 to 1000 nM; and `O=C(CO)N[C@H]1C[C@H](c2c(-c3ccc(F)cc3)[nH]c3c(F)cc(F)cc32)C1` [Compound 429, N-((1r,3r)-3-(5,7-difluoro-2-(4-fluorophenyl)-1H-indol-3-yl)cyclobutyl)-2-hydroxyacetamide], with 250 to 1000 nM. On to `NC[C@]1(O)C[C@@H](c2c(-c3ccc(F)cc3)[nH]c3c(F)cc(F)cc32)C1` [Compound 430, (1s,3s)-1-(aminomethyl)-3-(5,7-difluoro-2-(4-fluorophenyl)-1H-indol-3-yl)cyclobutan-1-ol], for which the IC50 was 250 to 1000 nM. As for `CC(=O)NC[C@]1(O)C[C@@H](c2c(-c3ccc(F)cc3)[nH]c3c(F)cc(F)cc32)C1` [Compound 431, N-(((1s,3s)-3-(5,7-difluoro-2-(4-fluorophenyl)-1H-indol-3-yl)-1-hydroxycyclobutyl)methyl)acetamide], the concentration for half-maximal inhibition (IC50) was > 1000 nM.
